The record followed here is PubChem BioAssay AID624281 (Broad Institute, 2012).

Active and inactive are the calls of the source. The rule behind the calls is not given here.

The subject of experiment [1] is V. cholerae DH231 (ΔcqsS ΔluxS) lux bioluminescence, 6 h. In words: Light production inducers in absence of autoinducers, V. cholerae DH231, dose response (AID 624281).
Assay in experiment [2]: as above
The following applies: V. cholerae DH231 (ΔcqsS ΔluxS) lux bioluminescence, 6 h; at 35 µM (top of the series).

As for `Cc1ccc2cc3c(NC(=O)c4ccco4)nn(C)c3nc2c1`, the AC40 in experiment [1] is 2.03 µM.

`Cc1c(Cl)cccc1-n1cnc(=O)c2ccccc21`: the luminescence activation in experiment [2] was -4.11% (inactive).

On to `CCCn1nnnc1NCc1ccc(C(C)C)cc1`, for which, in experiment [2], the luminescence activation was -30.3% (inactive).

For `O=C(Nc1nnc(-c2ccc3c(c2)OCCO3)o1)C1CCCCC1`, the AC40 in experiment [1] is 0.883 µM.

Turning to `O=c1ncn(-c2cccc(Cl)c2)c2ccccc12`, the luminescence activation in experiment [2] was 14.1% (inactive).

As for `COc1ccccc1NC(=O)COC(=O)c1ccc(C)cc1`, the luminescence activation in experiment [2] is 8.61% (inactive).

For `COc1ccc(Cl)cc1NC(=O)COC(=O)c1ccc(C)o1`, the luminescence activation in experiment [2] is -3.04% (inactive).

Consider `COc1ccccc1NC(=O)COC(=O)c1cc2c(s1)CCC2`, for which the AC40 in experiment [1] is > 35 µM (inactive).

`CCCn1nnnc1NCc1ccc(N(CC)CC)cc1`: the luminescence activation in experiment [2] is -19.9% (inactive).

Take `O=C(Cc1ccc(-c2ccccc2)cc1)NC1CCCC1`: in experiment [2], the luminescence activation is -8.42% (inactive).

`CCn1c(CC(=O)Nc2cccc(Cl)c2Cl)nnc1SCCOc1ccc(OC)cc1`: in experiment [2], the luminescence activation was -63.2% (inactive).

For `COc1ccccc1NC(=O)COC(=O)c1oc2ccccc2c1C`, the luminescence activation in experiment [2] was -6.24% (inactive).

`CCn1nnnc1NCc1ccc(N2CCCC2)cc1`: in experiment [2], the luminescence activation is -52.4% (inactive).

Regarding `Cc1ccc(CC(=O)NC2CCCC2)cc1`, the luminescence activation in experiment [2] was 0.807% (inactive).

Regarding `CCCn1nnnc1NCc1ccccc1Cl`, the luminescence activation in experiment [2] is -4.59% (inactive).

Turning to `Cc1ccc(OCCNC(=O)c2cccc(C)c2)cc1`, the luminescence activation in experiment [2] was -33.1% (inactive).

As for `CCn1nnc(NCc2ccc(C)cc2)n1`, the luminescence activation in experiment [2] is 4.08% (inactive).

Consider `CCCn1nnnc1NCc1ccc(N2CCCC2)cc1`, for which the luminescence activation in experiment [2] is -14% (inactive).

For `CCC(C)NC(=O)Cc1ccc(-c2ccccc2)cc1` (stereo not given), the luminescence activation in experiment [2] was -15.3% (inactive).

As for `CCOc1ccc(Nc2ccc3nonc3c2[N+](=O)[O-])cc1`, in experiment [2], the luminescence activation is -40.9% (inactive).
